Data reported in the supplement of paper PMC11061612.

Tests used:
Experiment in all cases: combination Emax (second highest fraction inhibited in the dose matrix, 72 h); higher = more inhibition; extreme values may be limits of the assay
[1] = test system: SW872 (Other Solid Carcinomas)
Summary of the method: (§1)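 Cell lines in DMEM/F12 or RPMI with 10% FBS were plated in 1536-well plates, held 24 hours at 37°C, 5% CO2, then given two-drug dose matrices for 72 hours (DMSO typically 0.2%). Viability was read by CellTiter-Glo 2.0 luminescence and scaled as inhibition from 0 (vehicle wells) to 1 (blank wells). Combination Emax is the second-highest inhibition in the matrix; Bliss excess is observed combination effect minus expected EA + EB − EA·EB, EA and EB being single-agent effects.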

[2] = test system: NCI-H2122 (Lung Adenocarcinoma)
Summary of the method: as §1

[3] = test system: CADO-ES1 (Ewing's Sarcoma)
Summary of the method: as §1

[4] = test system: COLO-668 (Small Cell Lung Carcinoma)
Summary of the method: as §1

[5] = test system: MOG-G-UVW (Low Grade Glioma)
Summary of the method: as §1

[6] = test system: MDA-MB-453 (Breast Carcinoma)
Summary of the method: as §1

[7] = test system: DU-145 (Prostate Carcinoma)
Summary of the method: as §1

Hey (Ovarian Carcinoma) = test system: Hey (Ovarian Carcinoma)
Summary of the method: as §1

[8] = test system: NCI-H1993 (Lung Adenocarcinoma)
Summary of the method: as §1

SK-N-AS (Neuroblastoma) = test system: SK-N-AS (Neuroblastoma)
Summary of the method: as §1

[9] = test system: HCC1937 (Breast Carcinoma)
Summary of the method: as §1

[10] = test system: SKN (Other Solid Carcinomas)
Summary of the method: as §1

[11] = test system: A4-Fuk (B-Lymphoblastic Leukemia)
Summary of the method: as §1

[12] = test system: ALL-SIL (T-Lymphoblastic Leukemia)
Summary of the method: as §1

[13] = test system: HCC2998 (Colorectal Carcinoma)
Summary of the method: as §1

[14] = test system: OACM5-1 (Esophageal Adenocarcinoma)
Summary of the method: as §1

[15] = test system: LC-1-sq (Squamous Cell Lung Carcinoma)
Summary of the method: as §1

[16] = test system: NCI-H1092 (Small Cell Lung Carcinoma)
Summary of the method: as §1

[17] = test system: NCI-H522 (Lung Adenocarcinoma)
Summary of the method: as §1

Compound: CC(=O)Nc1cccc(-n2c(=O)n(C3CC3)c(=O)c3c(Nc4ccc(I)cc4F)n(C)c(=O)c(C)c32)c1 [Trametinib] + Cc1nc(-c2cn3c(n2)-c2ccc(-c4cnn(C(C)(C)C(N)=O)c4)cc2OCC3)n(C(C)C)n1 [Taselisib] (first compound max 1 µM, 7x7, partner max 10 µM)
- combination Emax [1]: 0.588
- combination Emax [2]: 1
- combination Emax [3]: 0.245
- combination Emax [4]: 0.96
- combination Emax [5]: 0.955
- combination Emax [6]: 0.798
- combination Emax [7]: 0.411
- combination Emax (Hey (Ovarian Carcinoma)): 0.893
- combination Emax [8]: 0.898
- combination Emax (SK-N-AS (Neuroblastoma)): 0.73
- combination Emax [9]: 0.722
- combination Emax [10]: 0.676
- combination Emax [11]: 1
- combination Emax [12]: 0.831
- combination Emax [13]: 0.928
- combination Emax [14]: 0.82
- combination Emax [15]: 0.722
- combination Emax [16]: 0.161
- combination Emax [17]: 0.245

Compound: COc1cccc(OCCCN)c1-c1cc(Nc2cnc(C#N)cn2)n[nH]1 [Prexasertib] + CCc1c2c(nc3ccc(O)cc13)-c1cc3c(c(=O)n1C2)COC(=O)[C@]3(O)CC [SN-38] (first compound max 1 µM, 7x7, partner max 0.3 µM)
- combination Emax [1]: 1
- combination Emax [2]: 0.984
- combination Emax [3]: 0.996
- combination Emax [4]: 0.973
- combination Emax [5]: 0.987
- combination Emax [6]: 0.929
- combination Emax [7]: 0.807
- combination Emax (Hey (Ovarian Carcinoma)): 0.843
- combination Emax [8]: 0.938
- combination Emax (SK-N-AS (Neuroblastoma)): 0.997
- combination Emax [9]: 0.92
- combination Emax [10]: 0.803
- combination Emax [11]: 0.972
- combination Emax [12]: 1
- combination Emax [13]: 1
- combination Emax [14]: 0.854
- combination Emax [15]: 0.889
- combination Emax [16]: 0.899
- combination Emax [17]: 0.8

Compound: COc1cccc(OCCCN)c1-c1cc(Nc2cnc(C#N)cn2)n[nH]1 [Prexasertib] + O=C(c1cc(Cc2n[nH]c(=O)c3ccccc23)ccc1F)N1CCN(C(=O)C2CC2)CC1 [Olaparib] (first compound max 1 µM, 7x7, partner max 10 µM)
- combination Emax [1]: 0.937
- combination Emax [2]: 1
- combination Emax [3]: 0.943
- combination Emax [4]: 0.736
- combination Emax [5]: 0.926
- combination Emax [6]: 0.776
- combination Emax [7]: 0.603
- combination Emax (Hey (Ovarian Carcinoma)): 0.827
- combination Emax [8]: 0.845
- combination Emax (SK-N-AS (Neuroblastoma)): 0.995
- combination Emax [9]: 0.503
- combination Emax [10]: 0.439
- combination Emax [11]: 0.919
- combination Emax [12]: 0.992
- combination Emax [13]: 0.957
- combination Emax [14]: 0.641
- combination Emax [15]: 0.956
- combination Emax [16]: 0.67
- combination Emax [17]: 0.418

Compound: COc1cccc(OCCCN)c1-c1cc(Nc2cnc(C#N)cn2)n[nH]1 [Prexasertib] + C[C@@H]1COCCN1C2=NC(=NC(=C2)C3(CC3)[S@](=N)(=O)C)C4=C5C=CNC5=NC=C4 [AZD6738] (first compound max 1 µM, 7x7, partner max 10 µM)
- combination Emax [1]: 0.884
- combination Emax [2]: 0.99
- combination Emax [3]: 0.918
- combination Emax [4]: 0.746
- combination Emax [5]: 0.917
- combination Emax [6]: 0.888
- combination Emax [7]: 0.666
- combination Emax (Hey (Ovarian Carcinoma)): 0.877
- combination Emax [8]: 0.721
- combination Emax (SK-N-AS (Neuroblastoma)): 0.976
- combination Emax [9]: 0.537
- combination Emax [10]: 0.465
- combination Emax [11]: 0.879
- combination Emax [12]: 0.993
- combination Emax [13]: 0.967
- combination Emax [14]: 0.621
- combination Emax [15]: 0.965
- combination Emax [16]: 0.698
- combination Emax [17]: 0.388

Compound: COc1cccc(OCCCN)c1-c1cc(Nc2cnc(C#N)cn2)n[nH]1 [Prexasertib] + Cc1cc2ncnn2cc1Nc1ncc2c(n1)n(C1CCOCC1)c(=O)n2C [AZD7648] (first compound max 1 µM, 7x7, partner max 10 µM)
- combination Emax [1]: 0.867
- combination Emax [2]: 0.984
- combination Emax [3]: 0.94
- combination Emax [4]: 0.786
- combination Emax [5]: 0.904
- combination Emax [6]: 0.908
- combination Emax [7]: 0.649
- combination Emax (Hey (Ovarian Carcinoma)): 0.777
- combination Emax [8]: 0.777
- combination Emax (SK-N-AS (Neuroblastoma)): 0.984
- combination Emax [9]: 0.537
- combination Emax [10]: 0.425
- combination Emax [11]: 0.89
- combination Emax [12]: 0.983
- combination Emax [13]: 0.954
- combination Emax [14]: 0.643
- combination Emax [15]: 0.944
- combination Emax [16]: 0.707
- combination Emax [17]: 0.385

Compound: COc1cccc2c1C(=O)c1c(O)c3c(c(O)c1C2=O)C[C@@](O)(C(=O)CO)C[C@@H]3O[C@H]1C[C@H](N)[C@H](O)[C@H](C)O1 [Doxorubicin] + Cc1cc2ncnn2cc1Nc1ncc2c(n1)n(C1CCOCC1)c(=O)n2C [AZD7648] (first compound max 1 µM, 7x7, partner max 10 µM)
- combination Emax [1]: 0.811
- combination Emax [2]: 0.284
- combination Emax [3]: 0.873
- combination Emax [4]: 0.93
- combination Emax [5]: 0.867
- combination Emax [6]: 0.639
- combination Emax [7]: 0.649
- combination Emax (Hey (Ovarian Carcinoma)): 0.906
- combination Emax [8]: 0.968
- combination Emax (SK-N-AS (Neuroblastoma)): 0.723
- combination Emax [9]: 0.439
- combination Emax [10]: 0.779
- combination Emax [11]: 0.877
- combination Emax [12]: 0.983
- combination Emax [13]: 0.943
- combination Emax [14]: 0.834
- combination Emax [15]: 0.727
- combination Emax [16]: 0.479
- combination Emax [17]: 0.697
